Experimental data reported in the NIST ThermoML archive (doi:10.1007/s10765-015-1980-6).

Tests used:
[1] = 101 kPa, Liquid; for speed of sound: Frequency=2 MHz; for mass density: Pycnometric method
[2] = xn = mol fraction of the nth substance listed; conditions: 101 kPa, Liquid; for speed of sound: Frequency=2 MHz; for mass density: Pycnometric method

OCCCCO [1,4-butanediol]
[1], Linear variable-path acoustic interferometer
Conditions	speed of sound [m/s]
298.15 K	1601.6
303.15 K	1589.3
308.15 K	1577.7
313.15 K	1565.6

[1]
Conditions	mass density [kg/m3]
298.15 K	1012.6
303.15 K	1009.6
308.15 K	1006.7
313.15 K	1003.7

CCCCO [butan-1-ol]
[1]
Conditions	mass density [kg/m3]	speed of sound [m/s]
298.15 K	805.6	1241.1
303.15 K	801.9	1223.8
308.15 K	798.2	1205.8
313.15 K	794.5	1188.8

CCCCO [butan-1-ol] + OCCOCCO
[2], x2 = 0
Conditions	mass density [kg/m3]	speed of sound [m/s]
298.15 K	805.6	1241.1
303.15 K	801.9	1223.8
308.15 K	798.2	1205.8
313.15 K	794.5	1188.8

CCC(C)O (stereo unspecified) [butan-2-ol]
[1], Linear variable-path acoustic interferometer
Conditions	speed of sound [m/s]
298.15 K	1212.2
303.15 K	1194.1
308.15 K	1175.3
313.15 K	1157.4

[1]
Conditions	mass density [kg/m3]
298.15 K	802.4
303.15 K	798.3
308.15 K	794.2
313.15 K	790.1

CCC(C)O (stereo unspecified) [butan-2-ol] + OCCOCCO
[2], Linear variable-path acoustic interferometer, x2 = 0
Conditions	speed of sound [m/s]
298.15 K	1212.2
303.15 K	1194.1
308.15 K	1175.3
313.15 K	1157.4

[2], x2 = 0
Conditions	mass density [kg/m3]
298.15 K	802.4
303.15 K	798.3
308.15 K	794.2
313.15 K	790.1

OCCOCCO [diethylene glycol]
[1]
Conditions	mass density [kg/m3]	speed of sound [m/s]
298.15 K	1112.7	1579.3
303.15 K	1109.3	1568
308.15 K	1105.9	1557.3
313.15 K	1102.5	1546.1

OCCOCCO [diethylene glycol] + OCCCCO
[2], Linear variable-path acoustic interferometer, x1 = 1
Conditions	speed of sound [m/s]
298.15 K	1579.3
303.15 K	1568
308.15 K	1557.3
313.15 K	1546.1

[2], x1 = 1
Conditions	mass density [kg/m3]
298.15 K	1112.7
303.15 K	1109.3
308.15 K	1105.9
313.15 K	1102.5
